Here are results for eight molecules from PubChem BioAssay (NCI).

Experiment in all cases: NCI tumour cell line growth inhibition, 48 h
Experiment [1] concerns 786-0 renal.
Experiment [2] deals with BT-549 breast.
Experiment [3] deals with CCRF-CEM leukemia.
For experiment [4], the system named is HT29 colon.
Experiment [5] deals with LOX IMVI melanoma.
The test system of experiment [6] is MDA-MB-435.
The test system of experiment [7] is NCI-H226 lung.
Experiment [8] has as its system OVCAR-4 ovarian.
Experiment [9] deals with SK-MEL-28 melanoma.
The test system of experiment [10] is SNB-19 CNS.

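1) Cells in 96-well plates. 2) Compound, 48 h, 5 concentrations. 3) Linear interpolation between surrounding doses. 4) Unreached endpoint = highest concentration. GI50 = concentration required for 50% inhibition of growth. At the TGI there is no net growth.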 A value given as a limit tells only on which side of the number the result lay.

Turning to `C=C1C(=O)O[C@H]2[C@H]1CC/C(COC(=O)C(=O)c1cn(C)c3ccc(OC)cc13)=C\CC[C@@]1(C)O[C@@H]21`, the GI50 in experiment [1] is 3.84 µM; in experiment [2] it was 1.75 µM; in [3], 2.39 µM; in [4] it was 2.23 µM; in experiment [5], 1.57 µM; in experiment [6] it was 3.83 µM. Also, the GI50 in experiment [7] is 5.45 µM; in [8], 5.2 µM; in [9] it was 3.14 µM; in experiment [10], 9.07 µM. Further, the TGI in experiment [1] was found to be 7.56 µM; in [2] it was 3.28 µM; in experiment [3], 22.4 µM; in experiment [4], 5.4 µM; in experiment [5], 2.62 µM; in experiment [6], 9.49 µM. The TGI in experiment [7] is 10.1 µM; in experiment [8], 25.5 µM; in experiment [9] it was 8.49 µM; in [10], 21.8 µM.

As to `COc1ccc(-c2[nH]ncc2-c2cc(OC)c(OC)c(OC)c2)cc1`, the GI50 in experiment [1] was less than 0.01 µM; in [2] it was 0.0143 µM; in experiment [3] it was less than 0.0163 µM; in experiment [4] it was less than 0.01 µM; in experiment [5] it was less than 0.01 µM; in experiment [6], less than 0.01 µM. For the same molecule, the GI50 was less than 0.0148 µM in experiment [7], less than 0.0397 µM in [8], less than 0.0185 µM in experiment [9] and less than 0.01 µM in [10]. Also, the TGI in experiment [1] was 13.9 µM; in experiment [2], 4.45 µM; in experiment [3], 28.8 µM; in [4], 0.0326 µM; in [5], 44.4 µM; in [6] it was less than 0.01 µM. Moreover, the TGI was 34.8 µM in experiment [7], 29.6 µM in experiment [8], 33.6 µM in experiment [9] and more than 100 µM in experiment [10].

As to `CCOC(=O)c1cnc2c(cnn2CC)c1NN=C(C)C`, the GI50 in experiment [1] is 29.6 µM; in [2], 46.5 µM; in [3] it was 78.3 µM; in experiment [4] it was 23.3 µM; in experiment [5], 35.3 µM; in experiment [6] it was 78.2 µM. The GI50 in experiment [7] was 57.4 µM; in experiment [8], 94.6 µM; in [9], more than 100 µM; in experiment [10], 32.6 µM. For the same molecule, the TGI in experiment [1], in experiment [2], in experiment [3], in experiment [4], in experiment [5] and in [6] was more than 100 µM each time. Also, the TGI in experiment [7], in [8], in experiment [9] and in experiment [10] was more than 100 µM throughout.

For `C=C(C(=O)OC)[C@@H]1C[C@@H](O)[C@]2(C)CC/C=C(\C)CCC[C@H](C)[C@H](O)C1O2`, the GI50 was more than 100 µM in [1]; 29.5 µM in experiment [2]; 24.2 µM in experiment [3]; 53 µM in [4]; 32.8 µM in experiment [5]; 37.8 µM in experiment [6]. In addition, the GI50 was 86.7 µM in [7], 78.8 µM in [8], more than 100 µM in [9] and 79.3 µM in experiment [10]. Further, the TGI in experiment [1] is more than 100 µM; in experiment [2], 79.1 µM; in experiment [3] it was 46 µM; in experiment [4], more than 100 µM; in [5] it was more than 100 µM; in experiment [6], more than 100 µM. The TGI in [7], in experiment [8], in experiment [9] and in experiment [10] was more than 100 µM in each case.

As for `O=C(CC(=O)c1ccccc1NC1=Cc2ccccc2C(=O)C1=O)C(=O)NC1=C(Cl)C(=O)c2ccccc2C1=O`, the TGI was 10.7 µM in [1]; 9.14 µM in [2]; 33.6 µM in experiment [3]; 26.1 µM in experiment [4]; 3.35 µM in experiment [5]; 3.36 µM in [6]. The TGI in experiment [7] was 20.1 µM; in experiment [8] it was 15.1 µM; in [9] it was 3.71 µM; in experiment [10], 16.7 µM.

As to `CCC(C)CC(CC)NCCN1CCN(C(CC)CC(C)CC)C1=S` (stereo not given), the GI50 was 1.83 µM in experiment [1]; 2.39 µM in [2]; 1.86 µM in experiment [3]; 1.67 µM in [4]; 1.57 µM in experiment [5]; 1.77 µM in [6]. Also, the GI50 in experiment [7] is 1.85 µM; in experiment [8], 1.59 µM; in [9] it was 1.69 µM; in experiment [10] it was 1.73 µM. In addition, the TGI in experiment [1] was found to be 3.3 µM; in experiment [2], 4.52 µM; in experiment [3], 4.98 µM; in [4], 3.1 µM; in experiment [5], 2.91 µM; in experiment [6], 3.39 µM. Also, the TGI in [7] amounted to 4.02 µM; in experiment [8], 3.91 µM; in [9] it was 3.06 µM; in experiment [10] it was 3.87 µM.

As to `COc1ccc2sc3c(NCCCNCCO)nc4ccccc4c3c(=O)c2c1`, the GI50 is 1.38 µM in [1]; 10.2 µM in experiment [2]; 1.74 µM in experiment [3]; 1.57 µM in experiment [4]; 1.57 µM in [5]; 1.61 µM in [6]. For the same molecule, the GI50 in experiment [7] is 2.09 µM; in [8], 1.94 µM; in experiment [9], 1.8 µM; in [10] it was 1.65 µM. Moreover, the TGI in experiment [1] was found to be 2.82 µM; in experiment [2], 22.7 µM; in experiment [3], 4.06 µM; in experiment [4], 3.03 µM; in experiment [5], 3 µM; in experiment [6], 3.01 µM. Besides, the TGI in [7] worked out at 3.75 µM; in [8], 4.09 µM; in experiment [9], 3.27 µM; in [10], 3.15 µM.

In the case of `O=C1C(=O)c2c(nc3ncccn23)-c2ccccc21`, the GI50 in experiment [1] was 0.304 µM; in [2], 0.154 µM; in experiment [3] it was 0.328 µM; in experiment [4], 0.838 µM; in [5], 0.15 µM; in experiment [6], 0.114 µM. Further, the GI50 in [7] is 0.493 µM; in experiment [8], 0.161 µM; in experiment [9], 0.21 µM; in experiment [10], 0.247 µM. In addition, the TGI in experiment [1] is 0.766 µM; in [2] it was 0.291 µM; in [3], 3.45 µM; in experiment [4], 2.29 µM; in experiment [5], 0.339 µM; in experiment [6] it was 0.254 µM. Moreover, the TGI came out at 1.25 µM in experiment [7], 0.297 µM in experiment [8], 0.41 µM in [9] and 0.722 µM in experiment [10].
